Our source for the EC50 values is patent publication US8426438B2, “Heterocyclic-fused pyrazolo[4,3-c]pyridin-3-one M1 receptor positive allosteric modulators” (Merck Sharp & Dohme Corp., priority 2009, dated 2013).

In the test the target is T1, acetylcholine muscarinic M1 receptor (CHOnfat/hM1 cells) (Homo sapiens, UniProt P11229).
T1 construct: expressed in transfected cells; host or cells: CHOnfat cells (CHO, Geneticin selection)
T1 sequence (P11229 1-460): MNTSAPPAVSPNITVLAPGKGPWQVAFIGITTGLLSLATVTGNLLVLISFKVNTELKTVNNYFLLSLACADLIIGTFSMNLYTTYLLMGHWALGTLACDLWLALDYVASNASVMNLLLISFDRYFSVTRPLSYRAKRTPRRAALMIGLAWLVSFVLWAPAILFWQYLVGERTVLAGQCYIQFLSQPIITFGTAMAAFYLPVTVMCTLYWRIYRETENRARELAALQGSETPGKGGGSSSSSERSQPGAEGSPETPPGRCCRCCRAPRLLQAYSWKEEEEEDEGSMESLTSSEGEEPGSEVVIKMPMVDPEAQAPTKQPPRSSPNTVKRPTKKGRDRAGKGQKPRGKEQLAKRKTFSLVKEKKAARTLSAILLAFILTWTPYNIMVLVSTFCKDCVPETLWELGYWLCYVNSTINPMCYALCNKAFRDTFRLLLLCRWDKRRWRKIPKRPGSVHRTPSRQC
Kind of test: muscarinic FLIPR intracellular calcium assay for M1 positive allosteric modulator activity (acetylcholine EC20). In kind it is cell-based. The following applies: 4 min preincubation, then EC20 acetylcholine (3 nM final), read-out: IP Value (inflection point). How it is done: The assay studies the effect of one or several concentrations of test compounds on basal or acetylcholine-stimulated Ca^2+ levels using FLIPR.
Compounds are prepared and subjected to a preincubation period of 4 min. Thereafter, a single EC20 concentration of acetylcholine is added to each well (3 nM final). The intracellular Ca^2+ level of each sample is measured and compared to an acetylcholine control to determine any modulatory activity.
CHOnfat/hM1, hM2, hM3 or hM4 cells are plated 24 hr before the assay at a density of 18,000 cells/well (100 up in a 384 well plate. CHOnfat/hM1 and CHOnfat/hM3 Growth Medium: 90% DMEM (Hi Glucose); 10% HI FBS; 2 mM L-glutamine; 0.1 mM NEAA; Pen-Strep; and 1 mg/ml Geneticin, are added. For M2Gqi5CHOnfat and M4Gqi5CHOnfat cells, an additional 600 μg/ml hygrornycin is added.
384 well plate, 120 μL addition plate; 96-well Whatman 2 ml Uniplate Incubator, 37° C., 5% CO2; Skatron EMBLA-384 Plate Washer; Multimek Pipetting System; Genesis Freedom 200 System; Mosquito System; Temo Nanolitre Pipetting System; and FLIPR^384 Fluorometric Imaging Plate Reader System are used.
Assay Buffer: Hanks Balanced Salt Solution, with 20 mM Hepes, 2.5 mM Probenecid (Sigma P-8761) first dissolved in 1 N NaOH, 1% Bovine Serum Albumin (Sigma A-9647). Dye Loading Buffer: Assay Buffer plus 1% Fetal Bovine Serum and Fluo-4AM/Pluronic Acid Mixture. 2 mM Fluo-4AM ester stock in DMSO (Molecular Probes F-14202) Concentration of 2 μM in buffer for a final concentration of 1 μM in Assay. 20% Pluronic Acid Solution stock, with concentration of 0.04% in Buffer, 0.02% in Assay.
65 μL of 2 mM Fluo-4AM are mixed with 130 μL of 20% Pluronic Acid. The resulting solution and 650 μL FBS is added to the assay buffer for a total volume of 65 mL. Positive Controls: 4-Br-A23187: 10 mM in DMSO; final concentration 10 μM. Acetylcholine: 10 mM in water, working stock at both 20 μM and 30 μM in assay buffer, final concentration of 10 μM. This is used to check the maximum stimulation of the CHOK1/hM1 cells. 20 μM (2×) acetylcholine is added in the preincubation part of the assay, and the 30 μM (3×) stock is added in the second part. (EC20) Acetylcholine: 10 mM in water, working stock of 9 nM (3×), and final concentration in assay is 3 nM. This is used after the preincubation with test compounds. Addition of the EC20 Acetylcholine to each well with a test compound will ascertain any modulator activity. 24 wells contain 3 nM Acetylcholine alone as a control.
Compounds are titrated in 96-well plates (columns 2-11), 100% DMSO, started at a concentration of 15 mM (150× stock concentration), and 3-fold serial dilutions using Genesis Freedom200 System. Four 96-well plates are combined into a 384-well plate using Mosquito Nanolitre Pipetting System by transferring 1 μl of serial diluted compounds to each well, and 1 mM acetylcholine (100× stock concentration) were added as a control. Using Temo, 49 μl assay buffer is added to each well of the 384-well plate right before assay.
In a 96-well Whatman 2 ml Uniplate, 9 nM Acetylcholine (3×) is pipetted into wells corresponding to the screening compounds, and into control wells. The 30 μM acetylcholine control (3×) is added into control wells, and the 3× agonist plate is transferred into a 384 well plate.
Cells are washed three times with 100 μL of buffer, leaving […] of buffer in each well. Using Multimek, 30 μL of Dye Loading Buffer is added into each well and incubated at 37° C., 5% CO2 for up to one hr.
After 60 min, the cells are washed three times with 100 μL of buffer, leaving 30 μL of buffer in each well. The cell plate, screening plate, and agonist addition plates are placed on the platform in the FLIPR and the door closed. A signal test to check background fluorescence and basal fluorescence signal is performed. Laser intensity is adjusted if necessary. […]

pEC50: −log10 of the molar value.

Consider `O=c1c2cn(Cc3ccc(-n4cccn4)cc3)c3c(c-2nn1-c1ccccc1F)C(O)CCC3` (racemic) [Example 11, (±)-2-(2-Fluorophenyl)-9-hydroxy-5-{[4-(1H-pyrazol-1-yl)phenyl]methyl}-2,5,6,7,8,9-hexahydro-3H-pyrazolo[4,3-c]quinolin-3-one], for which the pEC50 was 5.89. For the compound `O=c1c2cn(Cc3ccc(-n4cccn4)cc3)c3cccnc3c-2nn1-c1ccccc1F` [Example 1, 2-(2-Fluorophenyl)-5-{[4-(1H-pyrazol-1-yl)phenyl]methyl}-2,5-dihydro-3H-pyrazolo[4,3-c]-1,5-naphthyridin-3-one], the pEC50 is 6.80. `O=c1c2cn(Cc3ccc(-n4cccn4)cc3)c3ncccc3c-2nn1-c1ccccc1F` [Example 2, 2-(2-Fluorophenyl)-5-{[4-(1H-pyrazol-1-yl)phenyl]methyl}-2,5-dihydro-3H-pyrazolo[4,3-c]-1,8-naphthyridin-3-one]: the pEC50 is 6.50. On to `O=c1c2cn(Cc3ccc(-n4cccn4)cc3)c3cnccc3c-2nn1-c1ccccc1F` [Example 4, 2-(2-Fluorophenyl)-5-{[4-(1H-pyrazol-1-yl)phenyl]methyl}-2,5-dihydro-3H-pyrazolo[4,3-c]-1,7-naphthyridin-3-one], for which the pEC50 was 5.12.

Consider `Cc1ccccc1-n1nc2c3nccnc3n(Cc3ccc(-n4cccn4)cc3)cc-2c1=O` [Example 6, 2-(2-Methylphenyl)-5-{[4-(1H-pyrazol-1-yl)phenyl]methyl}-2,5-dihydro-3H-pyrazolo[3′,4′:4,5]-pyrido[2,3-b]pyrazin-3-one], for which the pEC50 is 6.12. On to `O=c1c2cn(Cc3ccc(-n4cccn4)cc3)c3c(c-2nn1-c1ccccc1F)CCC3` [Example 8, 2-(2-Fluorophenyl)-5-{[4-(1H-pyrazol-1-yl)phenyl]methyl}-5,6,7,8-tetrahydrocyclopenta[b]pyrazolo[3,4-d]pyridine-3(2H)-one], for which the pEC50 was 6.11. For the compound `O=c1c2cn(Cc3ccc(-n4cccn4)cc3)c3c(c-2nn1-c1ccccc1F)CCCC3` [Example 9, 2-(2-Fluorophenyl)-5-{[4-(1H-pyrazol-1-yl)phenyl]methyl}-2,5,6,7,8,9-hexahydro-3H-pyrazolo[3,4-d]pyridine-3(2H)-one], the pEC50 is 6.44.

Turning to `O=c1c2cn(Cc3ccc(-n4cccn4)cc3)c3ccsc3c-2nn1-c1ccccc1F` [Example 12, 2-(2-Fluorophenyl)-5-{[4-(1H-pyrazol-1-yl)phenyl]methyl}-2,5-dihydro-3H-pyrazolo[4,3-d]thieno[3,2-b]pyridin-3-one], the pEC50 is 7.70. For the compound `Cc1ccccc1-n1nc2c3sccc3n(Cc3ccc(-n4cccn4)cc3)cc-2c1=O` [Example 13, 2-(2-Methylphenyl)-5-{[4-(1H-pyrazol-1-yl)phenyl]methyl}-2,5-dihydro-3H-pyrazolo[3,4-d]thieno[3,2-b]pyridin-3-one], the pEC50 was 6.97. `O=c1c2cn(Cc3ccc(-n4cccn4)cc3)c3ccsc3c-2nn1-c1c(Cl)cncc1Cl` [Example 15, 2-(3,5-Dichloropyridin-4-yl)-5-{[4-(1H-pyrazol-1-yl)phenyl]methyl}-2,5-dihydro-3H-pyrazolo[3,4-d]thieno[3,2-b]pyridin-3-one]: the pEC50 was 7.19.
